Where two headings read alike, the source gives them in different places.
Columns and labels:
rats = conditions: cited from earlier work
dispersed Caco-2 cells = assay: Uptake of vitamin D from mixed micelles by dispersed Caco-2 cells; assay type: in vitro ADME, human; conditions: NoPC mixed micelles, 2 h, cells dispersed with trypsin; compared among vitamins D2–D7
Text: Since 2001, we have reported that lysophospholipids enhance the uptake of micellar carotenoids in Caco-2 cells. […] In the present study, using the same method, we examined whether the mechanism for the enhancing effect of lysophosphatidylcholine could be adapted to vitamin D, as well. To evaluate the impact of the degree of cell-cell adhesion/cell-matrix adhesion on vitamin D uptake by cells, we prepared in two different ways: i) dispersed Caco-2 cells without cell-cell adhesion/cell-matrix adhesion and ii) Caco-2 cells with insufficient cell-cell adhesion.
(i): The dispersed cells were prepared by trypsin treatment. After collecting the cells in the culture medium, the number of cells was counted and diluted with the medium. The cells were washed two times with FBS-free DMEM and then seeded in culture plate of 24-well for suspension cultures (SC plate; Greiner Bio-One, Frickenhausen, Germany) at a density of 15 × 10^4 cells per well containing the FBS-free DMEM (0.5 mL).
Subsequent operations are common to the two models of cells. The medium consisting of mixed micellar vitamin D (0.5 mL) was added to adhered cells or dispersed cells in individual wells containing FBS-free DMEM (0.5 mL), resulting in a total medium volume of 1.0 mL/well, and the final start concentrations of mixed micellar components were one-half the initial concentration. The cells were incubated in the same conditions as described above, i.e., in a CO2 incubator at 37 °C for 2 h, and then the cells were washed with 2 mM taurocholate/PBS, followed by two times with PBS. The vitamin D uptake and residual mixed micellar vitamin D were evaluated as the previous subsection, but the filtrate of residual mixed micellar vitamin D was diluted with a 2x-volume of H2O. The cellular protein content was also determined as above.

[1] = tested on: differentiated Caco-2 cells; assay: Uptake of vitamin D solubilized in mixed micelles by differentiated Caco-2 cells; assay type: in vitro ADME, human; conditions: 2 h; for Vitamin D uptake by differentiated Caco-2 cells: vitamin D 1 μM, compared among vitamins D2–D7
Description: Caco-2 cells were purchased from the American Type Culture Collection (Rockville, MD, USA). DMEM containing 10% FBS, 4 mM L-glutamine, penicillin and streptomycin (40 units/mL and 40 μg/mL, respectively), and nonessential amino acids (0.1 mM) were used as the culture medium. The cells were grown in the culture medium at 37 °C in a humidified atmosphere of 5% CO2 in air and then were cultured by passaging two times per week. We used differentiated Caco-2 cells, which have been widely used as a human intestinal model, for vitamin D uptake experiments. To induce differentiation of Caco-2 cells, the cells were seeded in culture plate of 24-well at a density of 5 × 10^4 cells per well containing 0.5 mL of the culture medium. Then, the medium was changed with fresh medium two times per week for 20–22 d. We have previously reported that the cell monolayers obtained by this method had sufficient cell-cell adhesion.
The mixed micelles were prepared as described in our previous reports. All of the components, i.e., taurocholate, monoolein, oleic acid, lysophosphatidylcholine, and vitamin D, were dissolved in an appropriate solvent. Portions of these solvent solutions were moved to glass tubes. The solvent was dried up with argon gas and further centrifugal evaporator. The dry matter was dispersed into FBS-free DMEM (same as the culture medium described above but without FBS). To remove any vitamin D not solubilized in the micelles, the resulting solution was passed through a filter (the pore size was 0.2-μm). The materials of mixed micelle and their concentrations were taurocholate (2 mM), monoolein (100 μM), oleic acid (33 μM), lysophosphatidylcholine (0 or 50 μM), and vitamin D (1 μM), respectively, unless otherwise stated. The concentrations were same as those used in our previous study. […] One part of the mixed micelles was diluted with four parts of methylene chloride/methyl alcohol (1:4, v/v), and then a portion (30 μL) was analyzed by high-pressure liquid chromatography (HPLC) as explained in the “2.8. […]

[2] = target: T1, Niemann-Pick C1-like 1 (NPC1L1) (Homo sapiens, UniProt Q9UHC9); assay: Inhibitory effect of ezetimibe on vitamin D uptake by differentiated Caco-2 cells (facilitated diffusion); assay type: in vitro ADME; conditions: 150 μM ezetimibe pretreatment 2 h
T1 construct: host or cells: differentiated Caco-2 cells
T1 sequence (Q9UHC9 22-1359): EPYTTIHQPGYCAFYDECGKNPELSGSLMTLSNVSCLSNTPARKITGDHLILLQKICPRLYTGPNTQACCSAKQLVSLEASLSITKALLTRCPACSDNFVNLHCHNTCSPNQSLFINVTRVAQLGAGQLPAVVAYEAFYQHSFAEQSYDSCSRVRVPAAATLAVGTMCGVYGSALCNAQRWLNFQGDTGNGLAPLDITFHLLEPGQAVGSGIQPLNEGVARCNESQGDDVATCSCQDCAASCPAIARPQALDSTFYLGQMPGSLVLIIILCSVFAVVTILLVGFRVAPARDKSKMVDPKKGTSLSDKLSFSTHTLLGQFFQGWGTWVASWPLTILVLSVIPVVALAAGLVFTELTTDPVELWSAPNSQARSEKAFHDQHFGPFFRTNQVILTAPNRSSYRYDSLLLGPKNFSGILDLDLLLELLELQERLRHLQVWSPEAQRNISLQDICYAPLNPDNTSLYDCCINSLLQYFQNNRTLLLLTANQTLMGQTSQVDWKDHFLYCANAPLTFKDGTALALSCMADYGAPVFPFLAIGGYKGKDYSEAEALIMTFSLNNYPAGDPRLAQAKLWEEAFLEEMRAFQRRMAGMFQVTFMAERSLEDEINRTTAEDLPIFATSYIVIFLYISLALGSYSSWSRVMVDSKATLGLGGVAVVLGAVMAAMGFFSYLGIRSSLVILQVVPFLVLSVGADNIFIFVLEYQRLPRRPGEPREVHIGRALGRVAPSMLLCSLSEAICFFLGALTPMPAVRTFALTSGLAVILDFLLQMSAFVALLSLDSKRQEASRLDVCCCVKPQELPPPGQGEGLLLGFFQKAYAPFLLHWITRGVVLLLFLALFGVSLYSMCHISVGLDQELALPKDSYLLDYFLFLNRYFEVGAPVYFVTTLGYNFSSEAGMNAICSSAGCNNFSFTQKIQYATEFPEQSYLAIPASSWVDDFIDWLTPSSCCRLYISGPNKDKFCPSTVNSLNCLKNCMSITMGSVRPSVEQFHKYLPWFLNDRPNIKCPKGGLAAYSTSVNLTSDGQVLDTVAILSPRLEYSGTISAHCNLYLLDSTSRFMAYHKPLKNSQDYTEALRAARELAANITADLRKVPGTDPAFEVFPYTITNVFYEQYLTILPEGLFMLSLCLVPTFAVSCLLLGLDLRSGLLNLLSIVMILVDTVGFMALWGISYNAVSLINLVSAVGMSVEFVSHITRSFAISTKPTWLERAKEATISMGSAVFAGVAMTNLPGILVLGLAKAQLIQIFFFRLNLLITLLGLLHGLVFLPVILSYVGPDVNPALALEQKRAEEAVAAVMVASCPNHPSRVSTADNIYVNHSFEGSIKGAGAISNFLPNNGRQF
Description: In the present study, we evaluated the involvement of facilitated diffusion in the cellular uptake of each mixed micellar vitamin D2–D7 by using ezetimibe, an inhibitor of the protein Niemann-Pick C1-like 1 (NPC1L1). Ezetimibe was dissolved in dimethyl sulfoxide (DMSO), and then was added at a final concentration of 150 μM to the culture medium. At this time, the final concentration of DMSO was 1.5% (v/v). The differentiated Caco-2 cells were preincubated at 37 °C for 2 h with ezetimibe-containing culture medium (0.5 mL). The cells were washed two times with FBS-free DMEM (0.5 mL) and then treated with the medium containing mixed micellar vitamin D (0.5 mL) for 2 h, as described above. After treatment, cellular vitamin D, residual mixed micellar vitamin D, and the cellular protein content were evaluated as described in the previous subsection.

[3] = tested on: differentiated Caco-2 cells; assay: Cellular cholesterol in differentiated Caco-2 cells treated with mixed micelles containing lysophosphatidylcholine; assay type: cell-based, human; conditions: 2 h, no vitamin D
Description: The saponification reaction was performed as follows. A portion (0.8 mL) of the cell homogenate was mixed with 200 μL of 40 μM β-sitosterol/ethyl alcohol as an internal standard, 85 μL of 10 M KOH, and 0.6 mL ethyl alcohol and then incubated at 60 °C for 2 h under argon gas. After cooling the reaction solution, cholesterol was extracted with ethyl acetate and n-hexane in the same manner as the extraction of vitamin D described above. The extract was additionally washed with 0.8 mL H2O before the solvent completely dried and then dissolved in 200 μL of methylene chloride/methyl alcohol/H2O (9:81:10, v/v/v). An aliquot (40 μL) was then subjected to HPLC as described in the “2.8. HPLC Analysis” subsection below. The cellular protein content was also determined as above.
Vitamin D and cholesterol were analyzed by using the HPLC system and columns which were the same as in our previous report. Mobile phase X was ethanenitrile/methyl alcohol/H2O (75:15:10, v/v/v), mobile phase Y was methyl alcohol/ethyl acetate (70:30, v/v), and mobile phase Z was methyl alcohol/isopropyl alcohol (70:30, v/v). These mobile phases contained 0.1% ammonium acetate. […] Vitamin D and cholesterol were quantified from the peak area at 265 nm and 210 nm, respectively, by using the respective calibration curve of the authentic standard.

For `C=C1CC[C@H](O)C/C1=C/C=C1\CCC[C@]2(C)[C@@H]([C@H](C)CCCC(C)C)CC[C@@H]12` [Vitamin D3], the “Anti-rickets activity, comparison of vitamins D” value (rats; line test, vitamins D provided as a crystal) is given as “highest activities and were similar”.

For `C=C1CCC(O)C/C1=C/C=C1\CCCC2(C)C1CCC2C(C)CC[C@H](C)C(C)C` (stereo partly drawn) [Vitamin D4], the “Anti-rickets activity as percentage of that of vitamin D2” value (rats; line test, crystal) is listed as 50–75% and the “Vitamin D uptake by dispersed Caco-2 cells” value (dispersed Caco-2 cells) is listed as “higher than those of vitamins D2 and D3”.

For `C=C1CCC(O)C/C1=C/C=C1\CCCC2(C)C1CCC2C(C)CCC(CC)C(C)C` (stereo not drawn) [Vitamin D5], the “Vitamin D uptake by differentiated Caco-2 cells” value ([1]; NoPC mixed micelles (without lysophosphatidylcholine)) is given as “lower by vitamin D5 than by other vitamins D”, the “Vitamin D uptake by differentiated Caco-2 cells” value ([1]; lysoPC mixed micelles (lysophosphatidylcholine 50 μM)) is given as “tended to be lower than that of other vitamins D” and the “Anti-rickets activity relative to that of vitamin D2” value (rats; UV-irradiated precursors, not crystals) is given as 1/70. For the same compound, the “Anti-rickets activity relative to that of vitamins D2 and D3 as UV irradiation precursors” value (rats; UV-irradiated precursors) was 1/40, the “Anti-rickets activity relative to that of vitamin D3” value (rats; line test, crystal) was 1/180 and the “Vitamin D uptake by dispersed Caco-2 cells” value (dispersed Caco-2 cells) was “no tendency toward decreased vitamin-D5 uptake”.

For `C=C1CCC(O)C/C1=C/C=C1\CCCC2(C)C1CCC2C(C)/C=C/C(CC)C(C)C` (stereo not drawn) [Vitamin D6], the Anti-rickets activity (rats; UV-irradiated precursors) is given as “little or no activity” and the “Vitamin D uptake by dispersed Caco-2 cells” value (dispersed Caco-2 cells) is given as “higher than those of vitamins D2 and D3”.

In the case of `C=C1CCC(O)C/C1=C/C=C1\CCCC2(C)C1CCC2C(C)CC[C@@H](C)C(C)C` (stereo partly drawn) [Vitamin D7], the “Anti-rickets activity relative to that of vitamin D2” value (rats; UV-irradiated precursors) is given as 1/10 and the “Vitamin D uptake by dispersed Caco-2 cells” value (dispersed Caco-2 cells) is given as “higher than those of vitamins D2 and D3”.

For `O=C1[C@H](CC[C@H](O)c2ccc(F)cc2)[C@@H](c2ccc(O)cc2)N1c1ccc(F)cc1` [ezetimibe], the “Vitamin-D3 uptake blocked by ezetimibe” value [2] was 20–30% and the inhibition at 150 µM ([2]; relative to vehicle control, NoPC and lysoPC mixed micelles, read-out: Inhibition of the uptakes of vitamins D2–D7 by ezetimibe) was about 20%.

In the case of `CCCCCCCCCCCCCCCC(=O)OC[C@@H](O)COP(=O)([O-])OCC[N+](C)(C)C` [lysophosphatidylcholine, 1-16:0-2-OH-sn-glycerol-3-phosphocholine], the “Enhancement of vitamin D uptake by lysophosphatidylcholine compared with NoPC” value ([1]; differentiated Caco-2 cells, lysophosphatidylcholine 50 μM in mixed micelles, average for six vitamin D species) is reported as 2.5 times, the “Effect on cellular cholesterol amounts” value ([3]; lysophosphatidylcholine at <100 μM in mixed micelles) is reported as “tended to decrease the cellular cholesterol, but the decrease was not significant” and the “Effect on cellular cholesterol amounts” value ([3]; lysophosphatidylcholine at >150 μM in mixed micelles) is reported as “significantly decreased the cellular cholesterol”.
